Measurements from patent publication US10722520B2, “Heterocyclic compounds and their use in preventing or treating bacterial infections” (MUTABILIS, priority 2016, dated 2020).
Structures can show the parent of a compound that is named as a salt.

How the values were obtained:
E. cloacae P99 = assay: MIC of compound alone, broth microdilution; assay type: cell-based; conditions: Enterobacter cloacae; strain P99; compound alone; read-out: MIC compounds of the invention alone
Procedure: (§1) Log phase bacterial suspensions were adjusted to a final density of 5×10^5 cfu/mL in cation-adjusted Mueller-Hinton broth (Becton-Dickinson) and added to each well (98 μL). Microplates were incubated for 16-20 h at 35° C. in ambient air. The MIC of the compounds was defined as the lowest concentration of said compounds that prevented bacterial growth as read by visual inspection.

E. coli 190317 = assay: MIC of compound alone, broth microdilution; assay type: cell-based; conditions: Escherichia coli; strain 190317; compound alone; read-out: MIC compounds of the invention alone
Procedure: as §1

K. pneumoniae 6299 = assay: MIC of compound alone, broth microdilution; assay type: cell-based; conditions: Klebsiella pneumoniae; strain 6299; compound alone; read-out: MIC compounds of the invention alone
Procedure: as §1

K. pneumoniae BAA-1898 = assay: MIC of compound alone, broth microdilution; assay type: cell-based; conditions: Klebsiella pneumoniae, BAA1898; strain BAA-1898; compound alone; read-out: MIC compounds of the invention alone
Procedure: as §1

P. aeruginosa CIP107051 = assay: MIC of compound alone, broth microdilution; assay type: cell-based; conditions: Pseudomonas aeruginosa; strain CIP107051; compound alone; read-out: MIC compounds of the invention alone
Procedure: as §1

CMY-37 = CMY-37 (Citrobacter freundii, UniProt P05193); conditions: read-out: IC50 β-lactamase CMY-37; class (C); nitrocefin 200 μM, 30-min pre-incubation, enzyme 0.2 nM
AmpC (P99) = AmpC (P99) (Enterobacter cloacae, UniProt P05364); assay: biochemical
AmpC (PAE) = AmpC (PAE) (Pseudomonas aeruginosa, UniProt P24735); assay: biochemical
OXA-15 = OXA-15 (Pseudomonas aeruginosa, UniProt Q51574); assay: biochemical
TEM-1 = TEM-1 (Escherichia coli, UniProt P62593)
SHV-1 = SHV-1 (Klebsiella pneumoniae, UniProt P0AD64)
CTX-M-15 = CTX-M-15 (Escherichia coli, UniProt Q9EXV5)
KPC-2 = KPC-2 (Klebsiella pneumoniae, UniProt Q9F663)
OXA-1 = OXA-1 (Escherichia coli, UniProt P13661)
OXA-11 = OXA-11 (Pseudomonas aeruginosa, UniProt Q06778)
OXA-48 = OXA-48 (Klebsiella pneumoniae, UniProt Q6XEC0)

CC(=NOCCN)c1ccn(C2=CC3CN(C2)C(=O)N3OS(=O)(=O)O)n1 (mixture of isomers) [Example 29, (7-oxo-3-(3-[(Z,E)-N-(2-aminoethoxy)-C-methyl-carbonimidoyl]-pyrazol-1-yl)-1,6-diazabicyclo[3.2.1]oct-3-en-6-yl) hydrogen sulfate]
MIC (E. cloacae P99): 32 µg/mL | MIC (E. coli 190317): 8 µg/mL | MIC (K. pneumoniae 6299): > 32 µg/mL | MIC (K. pneumoniae BAA-1898): 32 µg/mL | MIC (P. aeruginosa CIP107051): > 32 µg/mL | IC50 (CMY-37): 35 nM | IC50 (AmpC (P99)): 25 nM | IC50 (AmpC (PAE)): 190 nM | IC50 (OXA-15): 51 nM | IC50 (TEM-1): 0.21 nM | IC50 (SHV-1): 1.1 nM | IC50 (CTX-M-15): 0.55 nM | IC50 (KPC-2): 8.7 nM | IC50 (OXA-1): 150 nM | IC50 (OXA-11): 31 nM | IC50 (OXA-48): 3 nM

O=C1N2CC(n3ccc(CO)n3)=CC(C2)N1OS(=O)(=O)O (centres unmarked) [Example 12, triethylammonium [3-[3-(hydroxymethyl)pyrazol-1-yl]-7-oxo-1,6-diazabicyclo[3.2.1]oct-3-en-6-yl]sulfate]
MIC (E. cloacae P99): 4 µg/mL | MIC (E. coli 190317): 1 µg/mL | MIC (K. pneumoniae 6299): 16 µg/mL | MIC (K. pneumoniae BAA-1898): 8 µg/mL | MIC (P. aeruginosa CIP107051): > 32 µg/mL | IC50 (AmpC (P99)): 15 nM | IC50 (AmpC (PAE)): 52 nM | IC50 (OXA-15): 190 nM | IC50 (TEM-1): 0.41 nM | IC50 (SHV-1): 2.1 nM | IC50 (CTX-M-15): 0.53 nM | IC50 (KPC-2): 26 nM | IC50 (OXA-1): 200 nM | IC50 (OXA-11): 70 nM | IC50 (OXA-48): 12 nM

O=C(c1ccn(C2=CC3CN(C2)C(=O)N3OS(=O)(=O)[O-])n1)N1CCOCC1.[Na+] (centres unmarked) [Example 31, sodium (7-oxo-3-[3-(morpholine-4-carbonyl)pyrazol-1-yl]-1,6-diazabicyclo[3.2.1]oct-3-en-6-yl) sulfate]
MIC (E. cloacae P99): > 32 µg/mL | MIC (E. coli 190317): > 32 µg/mL | MIC (K. pneumoniae 6299): > 32 µg/mL | MIC (K. pneumoniae BAA-1898): > 32 µg/mL | MIC (P. aeruginosa CIP107051): > 32 µg/mL | IC50 (AmpC (P99)): 15 nM | IC50 (AmpC (PAE)): 210 nM | IC50 (OXA-15): 88 nM | IC50 (TEM-1): 1.3 nM | IC50 (SHV-1): 4.4 nM | IC50 (CTX-M-15): 0.62 nM | IC50 (KPC-2): 11 nM | IC50 (OXA-1): 64 nM | IC50 (OXA-11): 33 nM | IC50 (OXA-48): 3 nM

O=C1N2CC(n3cc(CO)nn3)=CC(C2)N1OS(=O)(=O)O (centres unmarked) [Example 64, sodium [3-[4-(hydroxymethyl)triazol-1-yl]-7-oxo-1,6-diazabicyclo[3.2.1]oct-3-en-6-yl]sulfate]
MIC (E. cloacae P99): 4 µg/mL | MIC (E. coli 190317): 2 µg/mL | MIC (K. pneumoniae 6299): 32 µg/mL | MIC (K. pneumoniae BAA-1898): 8 µg/mL | MIC (P. aeruginosa CIP107051): > 32 µg/mL | IC50 (OXA-15): 8.7 nM | IC50 (TEM-1): 0.52 nM | IC50 (SHV-1): 2.9 nM | IC50 (CTX-M-15): 1 nM | IC50 (KPC-2): 7 nM | IC50 (OXA-1): 86 nM | IC50 (OXA-11): 96 nM | IC50 (OXA-48): 0.7 nM

O=C1N2CC(n3ccc([C@H](O)CO)n3)=CC(C2)N1OS(=O)(=O)[O-].[Na+] (stereo partly drawn) [Example 76, sodium [3-[3-[(1S)-1,2-dihydroxyethyl]pyrazol-1-yl]-7-oxo-1,6-diazabicyclo[3.2.1]oct-3-en-6-yl]sulfate]
MIC (E. cloacae P99): 32 µg/mL | MIC (E. coli 190317): 8 µg/mL | MIC (K. pneumoniae 6299): > 32 µg/mL | MIC (K. pneumoniae BAA-1898): > 32 µg/mL | MIC (P. aeruginosa CIP107051): > 32 µg/mL | IC50 (AmpC (P99)): 29 nM | IC50 (AmpC (PAE)): 210 nM | IC50 (OXA-15): 610 nM | IC50 (TEM-1): 1.8 nM | IC50 (SHV-1): 7.3 nM | IC50 (CTX-M-15): 2.1 nM | IC50 (KPC-2): 73 nM | IC50 (OXA-1): 860 nM | IC50 (OXA-11): 260 nM | IC50 (OXA-48): 50 nM

O=C(Nc1cc[nH]n1)c1ccn(C2=CC3CN(C2)C(=O)N3OS(=O)(=O)[O-])n1.[Na+] (centres unmarked) [Example 85, sodium [7-oxo-3-[3-(pyrazol-3-ylcarbamoyl)pyrazol-1-yl]-1,6-diazabicyclo[3.2.1]oct-3-en-6-yl]sulfate]
MIC (E. cloacae P99): > 32 µg/mL | MIC (E. coli 190317): 32 µg/mL | MIC (K. pneumoniae 6299): > 32 µg/mL | MIC (K. pneumoniae BAA-1898): > 32 µg/mL | MIC (P. aeruginosa CIP107051): > 32 µg/mL | IC50 (AmpC (P99)): 11 nM | IC50 (AmpC (PAE)): 130 nM | IC50 (OXA-15): 16 nM | IC50 (TEM-1): 0.35 nM | IC50 (SHV-1): 1.6 nM | IC50 (CTX-M-15): 0.59 nM | IC50 (KPC-2): 3.4 nM | IC50 (OXA-1): 22 nM | IC50 (OXA-11): 7.5 nM | IC50 (OXA-48): 1.7 nM
